Assay: xn = mol fraction of the nth substance listed
Conditions: 100 kPa, Liquid; for viscosity: Falling or rolling sphere viscometry; for mass density: Vibrating tube method

CC(C)C1CCCCC1 [(1-methylethyl)cyclohexane] + c1ccc2c(c1)CCCC2
Conditions | mass density [kg/m3] | viscosity [mPa·s]
293.15 K, x2 = 0 | 802.14 | 1.093
293.15 K, x2 = 0.0995 | 816.67 | 1.129
293.15 K, x2 = 0.1995 | 831.75 | 1.195
293.15 K, x2 = 0.299 | 847.23 | 1.258
293.15 K, x2 = 0.4004 | 863.44 | 1.334
293.15 K, x2 = 0.5006 | 879.87 | 1.436
293.15 K, x2 = 0.5995 | 896.5 | 1.543
293.15 K, x2 = 0.7015 | 914.1 | 1.671
293.15 K, x2 = 0.7991 | 931.39 | 1.823
293.15 K, x2 = 0.9006 | 949.99 | 2.008
298.15 K, x2 = 0 | 798.24 | 1.016
298.15 K, x2 = 0.0995 | 812.77 | 1.053
298.15 K, x2 = 0.1995 | 827.85 | 1.108
298.15 K, x2 = 0.299 | 843.32 | 1.165
298.15 K, x2 = 0.4004 | 859.53 | 1.233
298.15 K, x2 = 0.5006 | 875.96 | 1.324
298.15 K, x2 = 0.5995 | 892.57 | 1.416
298.15 K, x2 = 0.7015 | 910.16 | 1.531
298.15 K, x2 = 0.7991 | 927.44 | 1.662
298.15 K, x2 = 0.9006 | 946.04 | 1.824
303.15 K, x2 = 0 | 794.34 | 0.947
303.15 K, x2 = 0.0995 | 808.86 | 0.98
303.15 K, x2 = 0.1995 | 823.93 | 1.03
303.15 K, x2 = 0.299 | 839.4 | 1.08
303.15 K, x2 = 0.4004 | 855.61 | 1.143
303.15 K, x2 = 0.5006 | 872.03 | 1.225
303.15 K, x2 = 0.5995 | 888.63 | 1.305
303.15 K, x2 = 0.7015 | 906.22 | 1.407
303.15 K, x2 = 0.7991 | 923.49 | 1.521
303.15 K, x2 = 0.9006 | 942.08 | 1.667
308.15 K, x2 = 0 | 790.43 | 0.886
308.15 K, x2 = 0.0995 | 804.95 | 0.916
308.15 K, x2 = 0.1995 | 820.02 | 0.961
308.15 K, x2 = 0.299 | 835.48 | 1.007
308.15 K, x2 = 0.4004 | 851.68 | 1.064
308.15 K, x2 = 0.5006 | 868.1 | 1.137
308.15 K, x2 = 0.5995 | 884.69 | 1.208
308.15 K, x2 = 0.7015 | 902.28 | 1.3
308.15 K, x2 = 0.7991 | 919.54 | 1.404
308.15 K, x2 = 0.9006 | 938.12 | 1.532
313.15 K, x2 = 0 | 786.51 | 0.831
313.15 K, x2 = 0.0995 | 801.03 | 0.859
313.15 K, x2 = 0.1995 | 816.1 | 0.9
313.15 K, x2 = 0.299 | 831.55 | 0.942
313.15 K, x2 = 0.4004 | 847.75 | 0.994
313.15 K, x2 = 0.5006 | 864.17 | 1.06
313.15 K, x2 = 0.5995 | 880.76 | 1.124
313.15 K, x2 = 0.7015 | 898.34 | 1.207
313.15 K, x2 = 0.7991 | 915.59 | 1.3
313.15 K, x2 = 0.9006 | 934.17 | 1.413
318.15 K, x2 = 0 | – | 0.782
318.15 K, x2 = 0.0995 | – | 0.798
318.15 K, x2 = 0.1995 | – | 0.837
318.15 K, x2 = 0.299 | – | 0.876
318.15 K, x2 = 0.4004 | – | 0.925
318.15 K, x2 = 0.5006 | – | 0.986
318.15 K, x2 = 0.5995 | – | 1.045
318.15 K, x2 = 0.7015 | – | 1.121
318.15 K, x2 = 0.7991 | – | 1.206
318.15 K, x2 = 0.9006 | – | 1.309

From the NIST ThermoML archive (doi:10.1021/acs.jced.8b00662)
